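Dose response: 5 concentrations. Exposure: 48 h. Format: 96-well plates. Endpoint: linear interpolation; highest concentration if not reached. GI50 marks 50% less growth. TGI marks complete inhibition of growth.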
Columns and labels:
Assay in all cases: NCI anticancer screen, dose series, 48 h
A498 renal = test system: A498 renal
UO-31 renal = test system: UO-31 renal
EKVX NSCLC = test system: EKVX NSCLC
SF-268 CNS = test system: SF-268 CNS
HCT-15 colon = test system: HCT-15 colon
HOP-62 NSCLC = test system: HOP-62 NSCLC
ACHN renal = test system: ACHN renal
MALME-3M melanoma = test system: MALME-3M melanoma
OVCAR-4 ovarian = test system: OVCAR-4 ovarian
UACC-257 melanoma = test system: UACC-257 melanoma
NCI-H522 lung = test system: NCI-H522 lung
NCI/ADR-RES ovarian = test system: NCI/ADR-RES ovarian
CCRF-CEM leukemia = test system: CCRF-CEM leukemia
NCI-H226 lung = test system: NCI-H226 lung
SK-MEL-28 melanoma = test system: SK-MEL-28 melanoma
HCT-116 colon = test system: HCT-116 colon
NCI-H23 lung = test system: NCI-H23 lung
OVCAR-8 ovarian = test system: OVCAR-8 ovarian
TK-10 renal = test system: TK-10 renal
SNB-19 CNS = test system: SNB-19 CNS
U251 CNS = test system: U251 CNS
IGROV1 ovarian = test system: IGROV1 ovarian
SF-539 CNS = test system: SF-539 CNS
SW-620 colon = test system: SW-620 colon
HL-60(TB) leukemia = test system: HL-60(TB) leukemia
MOLT-4 leukemia = test system: MOLT-4 leukemia
SK-MEL-5 melanoma = test system: SK-MEL-5 melanoma
MDA-MB-231 breast = test system: MDA-MB-231 breast
RXF 393 renal = test system: RXF 393 renal

Cn1ccnc1C(=O)/C=C/c1ccc(NC(=O)Nc2ccccc2)cc1
TGI (A498 renal): 65.6 µM
GI50 (UO-31 renal): 14.3 µM
TGI (UO-31 renal): 29.4 µM
GI50 (EKVX NSCLC): 22.6 µM
TGI (EKVX NSCLC): 63.4 µM
GI50 (SF-268 CNS): 28.7 µM
TGI (SF-268 CNS): > 100 µM
GI50 (HCT-15 colon): 7.16 µM
TGI (HCT-15 colon): 27.2 µM
GI50 (HOP-62 NSCLC): 24.1 µM
TGI (HOP-62 NSCLC): 69.2 µM
GI50 (ACHN renal): 23.1 µM
TGI (ACHN renal): 72 µM
GI50 (MALME-3M melanoma): 18.3 µM
TGI (MALME-3M melanoma): 50.7 µM
GI50 (OVCAR-4 ovarian): 20.2 µM
TGI (OVCAR-4 ovarian): > 100 µM
GI50 (UACC-257 melanoma): 16.1 µM
TGI (UACC-257 melanoma): 38.8 µM
GI50 (NCI-H522 lung): 13 µM
TGI (NCI-H522 lung): 27.3 µM
GI50 (NCI/ADR-RES ovarian): 29 µM
TGI (NCI/ADR-RES ovarian): > 100 µM
GI50 (CCRF-CEM leukemia): 21.5 µM
TGI (CCRF-CEM leukemia): > 100 µM
GI50 (NCI-H226 lung): 22.9 µM
TGI (NCI-H226 lung): > 100 µM
GI50 (SK-MEL-28 melanoma): 16.2 µM
TGI (SK-MEL-28 melanoma): 32.8 µM
GI50 (HCT-116 colon): 13.3 µM
TGI (HCT-116 colon): 26.6 µM
GI50 (NCI-H23 lung): 16.1 µM
TGI (NCI-H23 lung): 37.3 µM
GI50 (OVCAR-8 ovarian): 25 µM
TGI (OVCAR-8 ovarian): > 100 µM
GI50 (TK-10 renal): 29.8 µM
TGI (TK-10 renal): > 100 µM
GI50 (SNB-19 CNS): 16.7 µM
TGI (SNB-19 CNS): 42.8 µM
GI50 (U251 CNS): 13.6 µM
TGI (U251 CNS): 29.6 µM
GI50 (IGROV1 ovarian): 19.1 µM
TGI (IGROV1 ovarian): 64.1 µM
GI50 (SF-539 CNS): 13.9 µM
TGI (SF-539 CNS): 28.5 µM
GI50 (SW-620 colon): 18.7 µM
TGI (SW-620 colon): 54.3 µM
GI50 (HL-60(TB) leukemia): 15.6 µM
TGI (HL-60(TB) leukemia): 69.1 µM
GI50 (MOLT-4 leukemia): 16.5 µM
TGI (MOLT-4 leukemia): 85.1 µM
GI50 (SK-MEL-5 melanoma): 15.7 µM
TGI (SK-MEL-5 melanoma): 29.4 µM
GI50 (MDA-MB-231 breast): 16.9 µM
TGI (MDA-MB-231 breast): 34 µM
GI50 (RXF 393 renal): 12.7 µM
TGI (RXF 393 renal): 27 µM

Source: PubChem BioAssay (NCI)
